Laboratory results reported in patent US10639345B2, “Compositions for preserving photoreceptor cells, retinal pigment epithelial cells, or visual function” (Massachusetts Eye and Ear Infirmary, priority 2010, dated 2020).
Where a SMILES comes first, the peptide text is derived from it. The star is where a group is joined. Cbz = O=C(OCc1ccccc1)*; CH2F = FC*

Legend:
RIP-1 = molecular target: T1, RIP-1 (Rattus norvegicus, UniProt D3ZYL0); assay: RIP-1 phosphorylation after retinal detachment (RIP-1 immunoprecipitation, anti-phosphoserine Western blot); format: in vivo; conditions: two days after retinal detachment; subretinal Z-VAD 300 μM and/or Nec-1 400 μM at detachment
T1 construct: RIP-1 was immunoprecipitated from lysates of untreated retina and of retina treated with either vehicle, Nec-1, Z-VAD, or Nec-1+Z-VAD; from tissue; host or cells: retina (retinal lysates) of animals with experimental retinal detachment
T1 sequence (D3ZYL0 1-658): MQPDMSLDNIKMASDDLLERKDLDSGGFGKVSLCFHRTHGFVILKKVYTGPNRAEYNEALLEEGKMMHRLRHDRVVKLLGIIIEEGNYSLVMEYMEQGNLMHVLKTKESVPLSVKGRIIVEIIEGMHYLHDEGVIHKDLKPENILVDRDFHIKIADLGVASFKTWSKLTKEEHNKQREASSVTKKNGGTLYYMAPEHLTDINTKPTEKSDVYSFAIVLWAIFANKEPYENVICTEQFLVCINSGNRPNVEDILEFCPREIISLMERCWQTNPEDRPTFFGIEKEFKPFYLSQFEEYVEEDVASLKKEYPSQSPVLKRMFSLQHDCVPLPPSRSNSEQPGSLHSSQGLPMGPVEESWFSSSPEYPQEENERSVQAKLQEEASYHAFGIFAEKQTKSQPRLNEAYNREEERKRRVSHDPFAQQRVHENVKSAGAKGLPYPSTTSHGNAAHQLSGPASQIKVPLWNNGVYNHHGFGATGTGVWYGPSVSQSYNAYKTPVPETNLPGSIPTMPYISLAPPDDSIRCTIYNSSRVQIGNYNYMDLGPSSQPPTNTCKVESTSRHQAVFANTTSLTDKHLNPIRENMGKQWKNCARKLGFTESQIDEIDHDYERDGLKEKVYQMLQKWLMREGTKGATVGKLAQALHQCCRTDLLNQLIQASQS
Method: Equal amount of retinal lysates (1 mg) were incubated with 1 μg anti-RIP-1 antibody (BD Biosciences) and 20 μl of Protein A/G Agarose beads (Thermo Scientific, Rockford, Ill.) at 4° C. overnight. Beads were washed 5 times with lysis buffer and TBS, and the immunopellets were then subjected to Western blotting.
RIP-1 is phosphorylated at several serine residues in its kinase domain during programmed necrosis and Nec-1 inhibits this phosphorylation (Degterev (2008) supra; Cho Y et al. (2009) Cell 137:1100-1111). To investigate the role of RIP-1 kinase in retinal detachment-induced photoreceptor death, the phosphorylation status of RIP-1 was first assessed by immunoprecipitating RIP-1 from the retina (FIG. 3A) and then blotting with an anti-phosphoserine antibody. RIP-1 was immunoprecipitated from retinal lysates. One mg of retinal lysates were incubated with anti-RIP-1 antibody and Protein A/G agarose beads. Extracts before (Pre) and after (Post) immunoprecipitation and the immunopellets (IP) were run on a 4-12% SDS-PAGE and blotted with anti-RIP-1 antibody. […]
To determine the effect of Nec-1 and a pan-caspase inhibitor on the phosphorylation of RIP-1, Z-VAD (300 μM) and/or a Nec-1 compound of Formula I-C (400 μM) were injected subretinally in the animal at the time of retinal detachment induction. […] Phosphorylation of RIP-1 was then assessed by Western blot analysis. […]

[1] = system: CD11b-positive macrophage/microglia; assay: CD11b-positive cell infiltration after retinal detachment in RIP-3−/− eyes; format: in vivo, RIP-3−/− mice
Method: Immunofluorescence was performed as previously reported (Hisatomi et al. (2008) J CLIN INVEST 118:2025-2038. The enucleated eyes were frozen in OCT compound (Sakura Finetechnical Co., Tokyo, Japan). Five μm-thick sections were cut, air dried and fixed in cold acetone for 10 minutes. Rat anti-CD11b (1:50; BD Biosciences, San Diego, Calif.) was used as the primary antibody and incubated at 4° C. overnight. A nonimmune serum was used as a negative control. Alexa Fluor 594-conjugated goat anti-rat IgG (Invitrogen, Carlsbad, Calif.) was used as the secondary antibody and incubated at room temperature for one hour. The specimens were imaged by confocal microscopy using the Leica HCX APOL40× lens.
Since the release of intracellular content in necrosis results in secondary inflammation, changes in the inflammatory response after retinal detachment were investigated by immunohistochemistry and immunofluorescence with an antibody against CD11b. FIG. 11A-B show IHC for CD11b (FIG. 11A) and quantification of CD11b-positive cells in control retina without retinal detachment and in retina treated with vehicle, Z-VAD or Z-VAD+Nec-1 (n=6 each) (FIG. 11B) at three days after retinal detachment. […]
FIG. 11C-D show immunofluorescence for CD11b (FIG. 11C) and quantification of CD11b-positive macrophage/microglia (FIG. 11D) in WT and RIP-3−/− retina after retinal detachment.

Fas-L = assay: Fas ligand expression after retinal detachment (real-time PCR); format: in vivo; conditions: compared to vehicle treatment
Method: Total RNA extraction and reverse transcription were performed as previously reported (Nakazawa T et al. (2006) MOL VIS 12:867-878; Hisatomi T et al. (2008). J CLIN INVEST 118:2025-2038). A real-time PCR assay was performed with Prism 7700 Sequence Detection System (Applied Biosystems, Foster City, Calif.). TaqMan Gene Expression assays were also used to check the expression of MCP-1 (Rn00580555_m1), TNF-α (Rn99999017_m1), and Fas-L (Rn00563754_m1). For relative comparison of each gene, the Ct value of real-time PCR data was analyzed with the ΔΔCt method and normalized by an endogenous control (18S ribosomal RNA).
TNF-α and Fas-L are potent inducer of programmed necrosis as well as apoptosis (Degterev A (2005) NAT CHEM BIOL 1:112-119). The effectiveness of a TNF-α blockade after retinal detachment was measured. […] However, other factors may also contribute to photoreceptor death, as the effect of TNF-α blockade was not as effective as that of Nec-1+Z-VAD treatment. Further, Fas ligand expression increased in Z-VAD-treated retina after retinal detachment compared to vehicle treatment (FIG. 12C), and may play a role in promoting necrotic photoreceptor death in Z-VAD-treated eyes.

**Q.** What does the source list for COC(=O)CC(NC(=O)C(C)NC(=O)C(NC(=O)OCc1ccccc1)C(C)C)C(=O)CF (stereo not drawn) [Z-VAD, Benzyloxycarbonyl-Val-Ala-Asp(OMe)-fluoromethylketone] (Cbz-Val-Ala-Asp(OMe)-CH2F; configuration not given here)?
**A.** RIP-1 phosphorylation (RIP-1): elevated; infiltration of CD11-b positive cells in the retina and subretinal space [1]: even less infiltration; Fas ligand expression (Fas-L): increased
